#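 The compound was tested at five concentrations on cells cultured in 96-well plates, with a 48-hour exposure period. GI50: concentration for 50% inhibition of growth.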 Calls of active or inactive are those of the source. No stated cut-off is given here; in the data, active = GI50 up to about 1.1 µM and inactive = higher.
# Columns and labels:
# Experiment in all cases: DTP human tumour cell line panel, 48 h
# SK-MEL-28 = system: SK-MEL-28
# LOX IMVI = system: LOX IMVI
# SK-MEL-5 = system: SK-MEL-5
# OVCAR-5 = system: OVCAR-5
# IGROV-1 = system: IGROV-1
# HL-60 = system: HL-60
# CCRF-CEM = system: CCRF-CEM
# SR = system: SR
# HOP-92 = system: HOP-92
# SNB-19 = system: SNB-19
# RPMI-8226 = system: RPMI-8226
# OVCAR-4 = system: OVCAR-4
# TK-10 = system: TK-10
# DU-145 = system: DU-145
# MDA-MB-231 = system: MDA-MB-231
# U-251 = system: U-251
# UO-31 = system: UO-31
# SN12C = system: SN12C
# HT-29 = system: HT-29
# CAKI-1 = system: CAKI-1
# SF-539 = system: SF-539
# HCT-116 = system: HCT-116
# MOLT-4 = system: MOLT-4
# SF-268 = system: SF-268
# MCF7 = system: MCF7
# SF-295 = system: SF-295
# MDA-MB-435 = system: MDA-MB-435
# EKVX = system: EKVX
# COLO 205 = system: COLO 205
# BT-549 = system: BT-549
# OVCAR-3 = system: OVCAR-3
# OVCAR-8 = system: OVCAR-8
# PC-3 = system: PC-3
# HCT-15 = system: HCT-15
# RXF 393 = system: RXF 393
# K562 = system: K562
# NCI-H226 = system: NCI-H226
# MDA-N = system: MDA-N
# SNB-75 = system: SNB-75
# HOP-62 = system: HOP-62
# UACC-62 = system: UACC-62
# SK-MEL-2 = system: SK-MEL-2
# SK-OV-3 = system: SK-OV-3
# A498 = system: A498
# M14 = system: M14
# KM12 = system: KM12
# UACC-257 = system: UACC-257
# T47D = system: T47D
# Malme-3M = system: Malme-3M
# NCI/ADR-RES = system: NCI/ADR-RES
# ACHN = system: ACHN
# NCI-H522 = system: NCI-H522
# HCC 2998 = system: HCC 2998
# SW-620 = system: SW-620
# Hs-578T = system: Hs-578T
# NCI-H23 = system: NCI-H23
# A549 = system: A549
# 786-0 = system: 786-0
# NCI-H460 = system: NCI-H460
smiles,measurement,setting,value
CC1OC(OC2C(O)COC(OC3C(C)OC(OC4C(OC(=O)[C@]56CCC(C)(C)C[C@@H]5C5=CCC7[C@@]8(C)C[C@H](O)[C@H](OC9OC(CO)C(O)C(O)C9O)[C@@](C)(CO)[C@@H]8CC[C@@]7(C)[C@]5(C)CC6)OCC(O)C4O)C(O)C3OC3OCC(O)(CO)C3O)C2O)C(O)C(O)C1O (stereo partly drawn),GI50,SK-MEL-28,3.29 µM (inactive)
same,GI50,LOX IMVI,19.8 µM (inactive)
same,GI50,SK-MEL-5,13.3 µM (inactive)
same,GI50,OVCAR-5,8.93 µM (inactive)
same,GI50,IGROV-1,13.3 µM (inactive)
same,GI50,HL-60,8.73 µM (inactive)
same,GI50,CCRF-CEM,18.5 µM (inactive)
same,GI50,SR,13.8 µM (inactive)
same,GI50,HOP-92,26.6 µM (inactive)
same,GI50,SNB-19,14.7 µM (inactive)
same,GI50,RPMI-8226,29.2 µM (inactive)
same,GI50,OVCAR-4,15.7 µM (inactive)
same,GI50,TK-10,14.5 µM (inactive)
same,GI50,DU-145,14.3 µM (inactive)
same,GI50,MDA-MB-231,12.6 µM (inactive)
same,GI50,U-251,16.3 µM (inactive)
same,GI50,UO-31,3.36 µM (inactive)
same,GI50,SN12C,4.3 µM (inactive)
same,GI50,HT-29,17.5 µM (inactive)
same,GI50,CAKI-1,2.58 µM (inactive)
same,GI50,SF-539,20.8 µM (inactive)
same,GI50,HCT-116,13.9 µM (inactive)
same,GI50,MOLT-4,15.7 µM (inactive)
same,GI50,SF-268,10.2 µM (inactive)
same,GI50,MCF7,25.5 µM (inactive)
same,GI50,SF-295,13.6 µM (inactive)
same,GI50,MDA-MB-435,17.4 µM (inactive)
same,GI50,EKVX,4.16 µM (inactive)
same,GI50,COLO 205,2.51 µM (inactive)
same,GI50,BT-549,16.6 µM (inactive)
same,GI50,OVCAR-3,18.9 µM (inactive)
same,GI50,OVCAR-8,18.5 µM (inactive)
same,GI50,PC-3,11.9 µM (inactive)
same,GI50,HCT-15,16.1 µM
same,GI50,RXF 393,14.7 µM (inactive)
same,GI50,K562,28.5 µM (inactive)
same,GI50,NCI-H226,16.9 µM (inactive)
same,GI50,MDA-N,12.6 µM (inactive)
same,GI50,SNB-75,21 µM (inactive)
same,GI50,HOP-62,15.1 µM (inactive)
same,GI50,UACC-62,13.2 µM (inactive)
same,GI50,SK-MEL-2,13.8 µM (inactive)
same,GI50,SK-OV-3,17.7 µM (inactive)
same,GI50,A498,3.97 µM (inactive)
same,GI50,M14,3.33 µM (inactive)
same,GI50,KM12,18.8 µM (inactive)
same,GI50,UACC-257,9.77 µM (inactive)
same,GI50,T47D,18.8 µM (inactive)
same,GI50,Malme-3M,12 µM (inactive)
same,GI50,NCI/ADR-RES,18.8 µM (inactive)
same,GI50,ACHN,12.5 µM (inactive)
same,GI50,NCI-H522,16.1 µM (inactive)
same,GI50,HCC 2998,5.18 µM (inactive)
same,GI50,SW-620,11.3 µM (inactive)
same,GI50,Hs-578T,7.48 µM (inactive)
same,GI50,NCI-H23,9.31 µM (inactive)
same,GI50,A549,4.62 µM (inactive)
same,GI50,786-0,12.4 µM (inactive)
same,GI50,NCI-H460,18.7 µM (inactive)
C=C1C(=O)O[C@H]2[C@H](OC(C)=O)[C@@H](C)CCC/C(C)=C/CC[C@@]3(C)O[C@@H]3C[C@@H]12,GI50,SK-MEL-28,4.72 µM (inactive)
same,GI50,LOX IMVI,1.86 µM (inactive)
same,GI50,SK-MEL-5,4.19 µM (inactive)
same,GI50,OVCAR-5,8.26 µM (inactive)
same,GI50,IGROV-1,2.77 µM (inactive)
same,GI50,HL-60,0.398 µM (active)
same,GI50,CCRF-CEM,0.661 µM (active)
same,GI50,SR,1.86 µM (inactive)
same,GI50,HOP-92,1.92 µM (inactive)
same,GI50,SNB-19,13.6 µM (inactive)
same,GI50,RPMI-8226,1.4 µM (inactive)
same,GI50,OVCAR-4,3.55 µM (inactive)
same,GI50,TK-10,2.13 µM (inactive)
same,GI50,DU-145,2.32 µM (inactive)
same,GI50,MDA-MB-231,4.08 µM (inactive)
same,GI50,U-251,6.34 µM (inactive)
same,GI50,UO-31,2.9 µM (inactive)
same,GI50,SN12C,1.61 µM (inactive)
same,GI50,HT-29,2.94 µM (inactive)
same,GI50,CAKI-1,2.19 µM (inactive)
same,GI50,SF-539,1.95 µM (inactive)
same,GI50,HCT-116,2.23 µM (inactive)
same,GI50,MOLT-4,2.6 µM (inactive)
same,GI50,SF-268,5.62 µM (inactive)
same,GI50,MCF7,2.31 µM (inactive)
same,GI50,SF-295,13.2 µM (inactive)
same,GI50,MDA-MB-435,3.24 µM (inactive)
same,GI50,EKVX,3.42 µM (inactive)
same,GI50,COLO 205,3.19 µM (inactive)
same,GI50,BT-549,2.94 µM (inactive)
same,GI50,OVCAR-3,4.97 µM (inactive)
same,GI50,OVCAR-8,0.885 µM (active)
same,GI50,PC-3,5.25 µM (inactive)
same,GI50,HCT-15,2.31 µM
same,GI50,RXF 393,1.87 µM (inactive)
same,GI50,K562,3.03 µM (inactive)
same,GI50,NCI-H226,1.5 µM (inactive)
same,GI50,MDA-N,2.94 µM (inactive)
same,GI50,SNB-75,6.21 µM (inactive)
same,GI50,HOP-62,15.6 µM (inactive)
same,GI50,UACC-62,4.11 µM (inactive)
same,GI50,SK-MEL-2,6.01 µM (inactive)
same,GI50,SK-OV-3,15.6 µM (inactive)
same,GI50,A498,3.56 µM (inactive)
same,GI50,M14,4.23 µM (inactive)
same,GI50,KM12,6.44 µM (inactive)
same,GI50,UACC-257,5.06 µM (inactive)
same,GI50,T47D,1.6 µM (inactive)
same,GI50,Malme-3M,16 µM (inactive)
same,GI50,NCI/ADR-RES,1.59 µM (inactive)
same,GI50,ACHN,1.72 µM (inactive)
same,GI50,NCI-H522,1.78 µM (inactive)
same,GI50,HCC 2998,5.27 µM (inactive)
same,GI50,SW-620,2.58 µM (inactive)
same,GI50,Hs-578T,3.32 µM (inactive)
same,GI50,NCI-H23,4.04 µM (inactive)
same,GI50,A549,7.35 µM (inactive)
same,GI50,786-0,1.6 µM (inactive)
same,GI50,NCI-H460,5.26 µM (inactive)

# Reference: ChEMBL document CHEMBL1201862, “PubChem BioAssay data set” (2004)
